# Reference: patent US20260132132A1, “3A,4,5,6-TETRAHYDRO-1 H-PYRAZOLO[3,4-C]PYRIDIN-7(7AH)-ONE DERIVATIVES AS FACTOR XIIA INHIBITORS” (KALVISTA PHARMACEUTICALS LIMITED, priority 2022, published 2026)
# Tests used:
# FXa = FXa (Homo sapiens, UniProt P00742); assay: Related protease inhibition: FXa, fluorogenic substrate; type: biochemical; conditions: fluorogenic substrate at Km, 25° C.; H1-H3 = % activity at 40 μM
# Method: Human serine protease enzyme Plasma Kallikrein, KLK1, FXa, Plasmin, Thrombin and Trypsin were assayed for enzymatic activity using an appropriate fluorogenic substrate at Km concentration, FXIa at fixed substrate concentration of 100 μM and various concentrations of the test compound.
# [1] = molecular target: T1, Human Factor XIIa (hFXIIa) (Homo sapiens, UniProt P00748); assay: Determination of Human Factor XIIa (hFXIIa) inhibition, fluorogenic substrate IC50 assay; type: biochemical; conditions: fluorogenic substrate H-DPro-Phe-Arg-AFC at Km, 25° C., read-out: Human FXIIa IC50
# T1 construct: purchased Enzyme Research Laboratories
# T1 sequence (P00748 373-615 limits assumed): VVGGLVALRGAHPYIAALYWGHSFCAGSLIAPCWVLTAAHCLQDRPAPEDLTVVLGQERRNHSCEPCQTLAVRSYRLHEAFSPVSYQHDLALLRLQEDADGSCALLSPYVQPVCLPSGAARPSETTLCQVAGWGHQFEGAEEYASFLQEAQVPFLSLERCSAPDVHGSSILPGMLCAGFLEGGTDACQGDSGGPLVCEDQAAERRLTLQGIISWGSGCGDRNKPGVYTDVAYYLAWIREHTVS
# T1 sequence (P00748 20-372 partner limits assumed): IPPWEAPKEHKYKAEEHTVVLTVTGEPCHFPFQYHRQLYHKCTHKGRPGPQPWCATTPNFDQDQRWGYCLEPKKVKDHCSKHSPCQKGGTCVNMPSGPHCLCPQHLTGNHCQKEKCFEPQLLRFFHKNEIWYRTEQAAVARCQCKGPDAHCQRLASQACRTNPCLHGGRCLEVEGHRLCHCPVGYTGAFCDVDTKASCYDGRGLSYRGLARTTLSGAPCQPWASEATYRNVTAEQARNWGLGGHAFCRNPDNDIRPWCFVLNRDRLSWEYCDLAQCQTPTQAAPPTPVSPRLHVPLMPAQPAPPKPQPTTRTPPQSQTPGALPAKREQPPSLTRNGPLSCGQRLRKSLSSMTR
# Method: Determination of Human Factor XIIa (hFXIIa) inhibition
# The Km for the cleavage of the substrate by hFXIIa was determined by standard transformation of the Michaelis-Menten equation, with subsequent inhibition assays performed at substrate Km concentration.
# Sequence of FXa (P00742 235-488 limits assumed): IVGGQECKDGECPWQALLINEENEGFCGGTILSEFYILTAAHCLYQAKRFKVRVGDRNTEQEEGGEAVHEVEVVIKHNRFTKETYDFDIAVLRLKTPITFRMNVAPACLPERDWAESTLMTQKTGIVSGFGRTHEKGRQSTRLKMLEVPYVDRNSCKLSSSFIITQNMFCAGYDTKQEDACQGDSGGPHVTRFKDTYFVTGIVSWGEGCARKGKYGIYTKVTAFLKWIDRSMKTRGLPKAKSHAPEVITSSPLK
# Sequence of FXa (P00742 41-179 partner limits assumed): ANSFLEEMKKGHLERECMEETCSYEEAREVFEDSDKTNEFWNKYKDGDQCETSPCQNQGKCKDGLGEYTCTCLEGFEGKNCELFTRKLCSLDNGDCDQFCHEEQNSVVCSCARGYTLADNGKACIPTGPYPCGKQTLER
Compound,IC50 (FXa),IC50 [1]
"Cc1cc(CNC(=O)c2nn(-c3cccc(Cl)c3)c3c2CCN(c2ccc4c(c2)C(=O)N(CC2CCOC2)CC4)C3=O)nn1C (centres unmarked) [Example 1258, 1-(3-chlorophenyl)-N-((1,5-dimethyl-1H-pyrazol-3-yl)methyl)-7-oxo-6-(1-oxo-2-((tetrahydrofuran-3-yl)methyl)-1,2,3,4-tetrahydroisoquinolin-7-yl)-4,5,6,7-tetrahydro-1H-pyrazolo[3,4-c]pyridine-3-carboxamide]",> 40 µM,0.1 to 0.3 µM
"O=C(NCC1CCOC1)c1nn(-c2cccc(Cl)c2)c2c1CCN(c1ccc3c(c1)C(=O)N(CCO)CC3)C2=O (centres unmarked) [Example 1260, 1-(3-chlorophenyl)-6-(2-(2-hydroxyethyl)-1-oxo-1,2,3,4-tetrahydroisoquinolin-7-yl)-7-oxo-N-((tetrahydrofuran-3-yl)methyl)-4,5,6,7-tetrahydro-1H-pyrazolo[3,4-c]pyridine-3-carboxamide]",> 40 µM,0.3 to 1 µM
"COCCN1CCc2ccc(N3CCc4c(C(=O)NCC5CC5)nn(-c5cccc(Cl)c5)c4C3=O)cc2C1=O [Example 1261, 1-(3-chlorophenyl)-N-(cyclopropylmethyl)-6-(2-(2-methoxyethyl)-1-oxo-1,2,3,4-tetrahydroisoquinolin-7-yl)-7-oxo-4,5,6,7-tetrahydro-1H-pyrazolo[3,4-c]pyridine-3-carboxamide]",> 40 µM,0.3 to 1 µM
"COCCN1CCc2ccc(N3CCc4c(C(=O)NCc5cc(C)n(C)n5)nn(-c5cccc(Cl)c5)c4C3=O)cc2C1=O [Example 1262, 1-(3-chlorophenyl)-N-((1,5-dimethyl-1H-pyrazol-3-yl)methyl)-6-(2-(2-methoxyethyl)-1-oxo-1,2,3,4-tetrahydroisoquinolin-7-yl)-7-oxo-4,5,6,7-tetrahydro-1H-pyrazolo[3,4-c]pyridine-3-carboxamide]",10 to 40 µM,0.1 to 0.3 µM
"Cc1cc(CNC(=O)c2nn(-c3cccc(Cl)c3)c3c2CCN(c2ccc4c(c2)C(=O)N(C)CC4)C3=O)n(C)n1 [Example 1264, 1-(3-chlorophenyl)-N-((1,3-dimethyl-1H-pyrazol-5-yl)methyl)-6-(2-methyl-1-oxo-1,2,3,4-tetrahydroisoquinolin-7-yl)-7-oxo-4,5,6,7-tetrahydro-1H-pyrazolo[3,4-c]pyridine-3-carboxamide]",10 to 40 µM,0.3 to 1 µM
"CO[C@H]1CCOC[C@H]1NC(=O)c1nn(-c2cccc(Cl)c2)c2c1CCN(c1ccc3c(c1)C(=O)N(C)CC3)C2=O [Example 1265, 1-(3-chlorophenyl)-N-((3R,4S)-4-methoxytetrahydro-2H-pyran-3-yl)-6-(2-methyl-1-oxo-1,2,3,4-tetrahydroisoquinolin-7-yl)-7-oxo-4,5,6,7-tetrahydro-1H-pyrazolo[3,4-c]pyridine-3-carboxamide]",> 40 µM,0.3 to 1 µM
"CN1CCc2ccc(N3CCc4c(C(=O)NC5(C)CCOCC5)nn(-c5cccc(Cl)c5)c4C3=O)cc2C1=O [Example 1266, 1-(3-chlorophenyl)-6-(2-methyl-1-oxo-1,2,3,4-tetrahydroisoquinolin-7-yl)-N-(4-methyltetrahydro-2H-pyran-4-yl)-7-oxo-4,5,6,7-tetrahydro-1H-pyrazolo[3,4-c]pyridine-3-carboxamide]",> 40 µM,0.3 to 1 µM
"Cc1ccc(CNC(=O)c2nn(-c3cccc(Cl)c3)c3c2CCN(c2ccc4c(c2)C(=O)N(C)CC4)C3=O)nn1 [Example 1267, 1-(3-chlorophenyl)-6-(2-methyl-1-oxo-1,2,3,4-tetrahydroisoquinolin-7-yl)-N-((6-methylpyridazin-3-yl)methyl)-7-oxo-4,5,6,7-tetrahydro-1H-pyrazolo[3,4-c]pyridine-3-carboxamide]",> 40 µM,0.3 to 1 µM
"COc1ccncc1CNC(=O)c1nn(-c2cccc(Cl)c2)c2c1CCN(c1ccc3c(c1)C(=O)N(C)CC3)C2=O [Example 1271, 1-(3-chlorophenyl)-N-((4-methoxypyridin-3-yl)methyl)-6-(2-methyl-1-oxo-1,2,3,4-tetrahydroisoquinolin-7-yl)-7-oxo-4,5,6,7-tetrahydro-1H-pyrazolo[3,4-c]pyridine-3-carboxamide]",> 40 µM,0.1 to 0.3 µM
"Cc1cc(CNC(=O)c2nn(-c3cccc(Cl)c3)c3c2CCN(c2ccc4c(c2)C(=O)N(CCCO)CC4)C3=O)nn1C [Example 1275, 1-(3-chlorophenyl)-N-((1,5-dimethyl-1H-pyrazol-3-yl)methyl)-6-(2-(3-hydroxypropyl)-1-oxo-1,2,3,4-tetrahydroisoquinolin-7-yl)-7-oxo-4,5,6,7-tetrahydro-1H-pyrazolo[3,4-c]pyridine-3-carboxamide]",10 to 40 µM,0.01 to 0.1 µM
"Cc1cnnc(CNC(=O)c2nn(-c3cccc(Cl)c3)c3c2CCN(c2ccc4c(c2)C(=O)N(C)CC4)C3=O)c1 [Example 1282, 1-(3-chlorophenyl)-6-(2-methyl-1-oxo-1,2,3,4-tetrahydroisoquinolin-7-yl)-N-((5-methylpyridazin-3-yl)methyl)-7-oxo-4,5,6,7-tetrahydro-1H-pyrazolo[3,4-c]pyridine-3-carboxamide]",> 40 µM,0.3 to 1 µM
"O=C(NCC1CC1)c1nn(-c2cccc(Cl)c2)c2c1CCN(c1cccc(N3CCCCC3=O)c1)C2=O [Example 1285, 1-(3-chlorophenyl)-N-(cyclopropylmethyl)-7-oxo-6-(3-(2-oxopiperidin-1-yl)phenyl)-4,5,6,7-tetrahydro-1H-pyrazolo[3,4-c]pyridine-3-carboxamide]",> 40 µM,1 to 3 µM
"Cc1ccncc1CNC(=O)c1nn(-c2cccc(Cl)c2)c2c1CCN(c1cccc(N3CCCCC3=O)c1)C2=O [Example 1287, 1-(3-chlorophenyl)-N-((4-methylpyridin-3-yl)methyl)-7-oxo-6-(3-(2-oxopiperidin-1-yl)phenyl)-4,5,6,7-tetrahydro-1H-pyrazolo[3,4-c]pyridine-3-carboxamide]",10 to 40 µM,0.3 to 1 µM
"Cc1ccncc1CNC(=O)c1nn(-c2cccc(Cl)c2)c2c1CCN(c1ccc3c(c1)C(=O)N(CCO)CCO3)C2=O [Example 1299, 1-(3-chlorophenyl)-6-(4-(2-hydroxyethyl)-5-oxo-2,3,4,5-tetrahydrobenzo[f][1,4]oxazepin-7-yl)-N-((4-methylpyridin-3-yl)methyl)-7-oxo-4,5,6,7-tetrahydro-1H-pyrazolo[3,4-c]pyridine-3-carboxamide]",10 to 40 µM,0.01 to 0.1 µM
"CC(=O)N1CCc2ccc(N3CCc4c(C(=O)NCc5cc(C)n(C)n5)nn(-c5cccc(Cl)c5)c4C3=O)cc21 [Example 1304, 6-(1-acetylindolin-6-yl)-1-(3-chlorophenyl)-N-((1,5-dimethyl-1H-pyrazol-3-yl)methyl)-7-oxo-4,5,6,7-tetrahydro-1H-pyrazolo[3,4-c]pyridine-3-carboxamide]",> 40 µM,0.3 to 1 µM
"Cc1cc(CNC(=O)c2nn(-c3cccc(Cl)c3)c3c2CCN(c2ccc4c(c2)C(=O)N(CCO)CCC4)C3=O)nn1C [Example 1305, 1-(3-chlorophenyl)-N-((1,5-dimethyl-1H-pyrazol-3-yl)methyl)-6-(2-(2-hydroxyethyl)-1-oxo-2,3,4,5-tetrahydro-1H-benzo[c]azepin-8-yl)-7-oxo-4,5,6,7-tetrahydro-1H-pyrazolo[3,4-c]pyridine-3-carboxamide]",3 to 10 µM,0.01 to 0.1 µM
"Cc1ccncc1CNC(=O)c1nn(-c2cccc(Cl)c2)c2c1CCN(c1ccc3c(c1)C(=O)N(CCO)CCC3)C2=O [Example 1306, 1-(3-chlorophenyl)-6-(2-(2-hydroxyethyl)-1-oxo-2,3,4,5-tetrahydro-1H-benzo[c]azepin-8-yl)-N-((4-methylpyridin-3-yl)methyl)-7-oxo-4,5,6,7-tetrahydro-1H-pyrazolo[3,4-c]pyridine-3-carboxamide]",10 to 40 µM,0.01 to 0.1 µM
"CN1CCc2ccc(N3CCc4c(C(=O)N[C@H](CO)c5ccccc5)nn(-c5cccc(Cl)c5)c4C3=O)cc2C1=O [Example 1307, (S)-1-(3-chlorophenyl)-N-(2-hydroxy-1-phenylethyl)-6-(2-methyl-1-oxo-1,2,3,4-tetrahydroisoquinolin-7-yl)-7-oxo-4,5,6,7-tetrahydro-1H-pyrazolo[3,4-c]pyridine-3-carboxamide]",> 40 µM,0.1 to 0.3 µM
"Cc1cccnc1CNC(=O)c1nn(-c2cccc(Cl)c2)c2c1CCN(c1ccc3c(c1)C(=O)N(C)CC3)C2=O [Example 1308, 1-(3-chlorophenyl)-6-(2-methyl-1-oxo-1,2,3,4-tetrahydroisoquinolin-7-yl)-N-((3-methylpyridin-2-yl)methyl)-7-oxo-4,5,6,7-tetrahydro-1H-pyrazolo[3,4-c]pyridine-3-carboxamide]",> 40 µM,0.3 to 1 µM
